Test: Clinical laboratory findings: haematology; data mean (standard deviation)
Type: in vivo, healthy men
Source text: Data are mean (standard deviation).

C[C@@H](N)c1cc(Cl)ccc1Cn1c(=S)[nH]c(=O)c2[nH]ccc21 [AZD4831]
Basophils (5 mg fasted, 24 h): 0.03 (0.01) 10^9 L^–1 | Eosinophils (5 mg fasted, 24 h): 0.25 (0.12) 10^9 L^–1 | Erythrocyte MCH (5 mg fasted, 24 h): 29.8 (1.2) pg | Erythrocyte MCH concentration (5 mg fasted, 24 h): 340 (5) g L^–1 | Erythrocyte MCV (5 mg fasted, 24 h): 87.5 (3.3) fL | Erythrocytes (5 mg fasted, 24 h): 4.90 (0.28) 10^12 L^–1 | Haematocrit (5 mg fasted, 24 h): 0.43 (0.02) ratio | Haemoglobin (5 mg fasted, 24 h): 146 (6) g L^–1 | Leukocytes (5 mg fasted, 24 h): 5.43 (0.71) 10^9 L^–1 | Lymphocytes (5 mg fasted, 24 h): 1.62 (0.37) 10^9 L^–1 | Monocytes (5 mg fasted, 24 h): 0.37 (0.06) 10^9 L^–1 | Neutrophils (5 mg fasted, 24 h): 3.07 (0.47) 10^9 L^–1 | Platelets (5 mg fasted, 24 h): 246 (44) 10^9 L^–1 | Reticulocytes (5 mg fasted, 24 h): 76.9 (15.3) 10^9 L^–1 | Basophils (5 mg fasted, 48 h): 0.04 (0.02) 10^9 L^–1 | Eosinophils (5 mg fasted, 48 h): 0.23 (0.10) 10^9 L^–1 | Erythrocyte MCH (5 mg fasted, 48 h): 29.6 (1.0) pg | Erythrocyte MCH concentration (5 mg fasted, 48 h): 338 (6) g L^–1 | Erythrocyte MCV (5 mg fasted, 48 h): 87.7 (3.1) fL | Erythrocytes (5 mg fasted, 48 h): 4.88 (0.26) 10^12 L^–1 | Haematocrit (5 mg fasted, 48 h): 0.43 (0.02) ratio | Haemoglobin (5 mg fasted, 48 h): 145 (7) g L^–1 | Leukocytes (5 mg fasted, 48 h): 5.74 (1.20) 10^9 L^–1 | Lymphocytes (5 mg fasted, 48 h): 1.60 (0.38) 10^9 L^–1 | Monocytes (5 mg fasted, 48 h): 0.38 (0.06) 10^9 L^–1 | Neutrophils (5 mg fasted, 48 h): 3.38 (1.02) 10^9 L^–1 | Platelets (5 mg fasted, 48 h): 240 (50) 10^9 L^–1 | Reticulocytes (5 mg fasted, 48 h): 84.4 (20.3) 10^9 L^–1 | Basophils (5 mg fasted, follow up): 0.04 (0.01) 10^9 L^–1 | Eosinophils (5 mg fasted, follow up): 0.26 (0.12) 10^9 L^–1 | Erythrocyte MCH (5 mg fasted, follow up): 29.5 (1.1) pg | Erythrocyte MCH concentration (5 mg fasted, follow up): 334 (5) g L^–1 | Erythrocyte MCV (5 mg fasted, follow up): 88.2 (3.1) fL | Erythrocytes (5 mg fasted, follow up): 4.98 (0.36) 10^12 L^–1 | Haematocrit (5 mg fasted, follow up): 0.44 (0.02) ratio | Haemoglobin (5 mg fasted, follow up): 147 (8) g L^–1 | Leukocytes (5 mg fasted, follow up): 5.94 (1.03) 10^9 L^–1 | Lymphocytes (5 mg fasted, follow up): 1.47 (0.34) 10^9 L^–1 | Monocytes (5 mg fasted, follow up): 0.45 (0.15) 10^9 L^–1 | Neutrophils (5 mg fasted, follow up): 3.59 (0.73) 10^9 L^–1 | Platelets (5 mg fasted, follow up): 249 (38) 10^9 L^–1 | Reticulocytes (5 mg fasted, follow up): 91.6 (15.7) 10^9 L^–1 | Basophils (15 mg fasted, 24 h): 0.04 (0.01) 10^9 L^–1 | Eosinophils (15 mg fasted, 24 h): 0.21 (0.07) 10^9 L^–1 | Erythrocyte MCH (15 mg fasted, 24 h): 29.6 (0.7) pg | Erythrocyte MCH concentration (15 mg fasted, 24 h): 341 (2) g L^–1 | Erythrocyte MCV (15 mg fasted, 24 h): 86.8 (2.0) fL | Erythrocytes (15 mg fasted, 24 h): 5.08 (0.27) 10^12 L^–1 | Haematocrit (15 mg fasted, 24 h): 0.44 (0.03) ratio | Haemoglobin (15 mg fasted, 24 h): 150 (9) g L^–1 | Leukocytes (15 mg fasted, 24 h): 5.94 (1.90) 10^9 L^–1 | Lymphocytes (15 mg fasted, 24 h): 1.75 (0.55) 10^9 L^–1 | Monocytes (15 mg fasted, 24 h): 0.46 (0.17) 10^9 L^–1 | Neutrophils (15 mg fasted, 24 h): 3.37 (1.36) 10^9 L^–1 | Platelets (15 mg fasted, 24 h): 193 (28) 10^9 L^–1 | Reticulocytes (15 mg fasted, 24 h): 77.2 (18.6) 10^9 L^–1 | Basophils (15 mg fasted, 48 h): 0.04 (0.01) 10^9 L^–1 | Eosinophils (15 mg fasted, 48 h): 0.22 (0.07) 10^9 L^–1 | Erythrocyte MCH (15 mg fasted, 48 h): 29.5 (1.1) pg | Erythrocyte MCH concentration (15 mg fasted, 48 h): 340 (7) g L^–1 | Erythrocyte MCV (15 mg fasted, 48 h): 86.9 (2.9) fL | Erythrocytes (15 mg fasted, 48 h): 5.03 (0.23) 10^12 L^–1 | Haematocrit (15 mg fasted, 48 h): 0.44 (0.02) ratio | Haemoglobin (15 mg fasted, 48 h): 148 (8) g L^–1 | Leukocytes (15 mg fasted, 48 h): 6.08 (1.88) 10^9 L^–1 | Lymphocytes (15 mg fasted, 48 h): 1.71 (0.49) 10^9 L^–1 | Monocytes (15 mg fasted, 48 h): 0.52 (0.21) 10^9 L^–1 | Neutrophils (15 mg fasted, 48 h): 3.47 (1.39) 10^9 L^–1 | Platelets (15 mg fasted, 48 h): 204 (25) 10^9 L^–1 | Reticulocytes (15 mg fasted, 48 h): 78.1 (24.5) 10^9 L^–1 | Basophils (15 mg fasted, follow up): 0.04 (0.02) 10^9 L^–1 | Eosinophils (15 mg fasted, follow up): 0.22 (0.08) 10^9 L^–1 | Erythrocyte MCH (15 mg fasted, follow up): 29.1 (1.0) pg | Erythrocyte MCH concentration (15 mg fasted, follow up): 334 (2) g L^–1 | Erythrocyte MCV (15 mg fasted, follow up): 87.3 (2.5) fL | Erythrocytes (15 mg fasted, follow up): 5.06 (0.37) 10^12 L^–1 | Haematocrit (15 mg fasted, follow up): 0.44 (0.03) ratio | Haemoglobin (15 mg fasted, follow up): 147 (10) g L^–1 | Leukocytes (15 mg fasted, follow up): 5.81 (1.43) 10^9 L^–1 | Lymphocytes (15 mg fasted, follow up): 1.63 (0.38) 10^9 L^–1 | Monocytes (15 mg fasted, follow up): 0.49 (0.07) 10^9 L^–1 | Neutrophils (15 mg fasted, follow up): 3.32 (1.20) 10^9 L^–1 | Platelets (15 mg fasted, follow up): 221 (33) 10^9 L^–1 | Reticulocytes (15 mg fasted, follow up): 89.9 (32.9) 10^9 L^–1 | Basophils (45 mg fasted, 24 h): 0.04 (0.02) 10^9 L^–1 | Eosinophils (45 mg fasted, 24 h): 0.20 (0.12) 10^9 L^–1 | Erythrocyte MCH (45 mg fasted, 24 h): 28.4 (2.1) pg | Erythrocyte MCH concentration (45 mg fasted, 24 h): 335 (8) g L^–1 | Erythrocyte MCV (45 mg fasted, 24 h): 84.8 (5.8) fL | Erythrocytes (45 mg fasted, 24 h): 5.01 (0.18) 10^12 L^–1 | Haematocrit (45 mg fasted, 24 h): 0.42 (0.03) ratio | Haemoglobin (45 mg fasted, 24 h): 142 (9) g L^–1 | Leukocytes (45 mg fasted, 24 h): 5.28 (1.15) 10^9 L^–1 | Lymphocytes (45 mg fasted, 24 h): 1.74 (0.42) 10^9 L^–1 | Monocytes (45 mg fasted, 24 h): 0.37 (0.13) 10^9 L^–1 | Neutrophils (45 mg fasted, 24 h): 2.83 (0.90) 10^9 L^–1 | Platelets (45 mg fasted, 24 h): 220 (39) 10^9 L^–1 | Reticulocytes (45 mg fasted, 24 h): 69.8 (16.4) 10^9 L^–1 | Basophils (45 mg fasted, 48 h): 0.04 (0.02) 10^9 L^–1 | Eosinophils (45 mg fasted, 48 h): 0.21 (0.10) 10^9 L^–1 | Erythrocyte MCH (45 mg fasted, 48 h): 28.4 (2.3) pg | Erythrocyte MCH concentration (45 mg fasted, 48 h): 335 (15) g L^–1 | Erythrocyte MCV (45 mg fasted, 48 h): 84.9 (5.9) fL | Erythrocytes (45 mg fasted, 48 h): 5.02 (0.33) 10^12 L^–1 | Haematocrit (45 mg fasted, 48 h): 0.43 (0.03) ratio | Haemoglobin (45 mg fasted, 48 h): 142 (8) g L^–1 | Leukocytes (45 mg fasted, 48 h): 5.69 (1.06) 10^9 L^–1 | Lymphocytes (45 mg fasted, 48 h): 1.79 (0.36) 10^9 L^–1 | Monocytes (45 mg fasted, 48 h): 0.38 (0.10) 10^9 L^–1 | Neutrophils (45 mg fasted, 48 h): 3.16 (0.95) 10^9 L^–1 | Platelets (45 mg fasted, 48 h): 222 (44) 10^9 L^–1 | Reticulocytes (45 mg fasted, 48 h): 77.3 (19.5) 10^9 L^–1 | Basophils (45 mg fasted, follow up): 0.05 (0.02) 10^9 L^–1 | Eosinophils (45 mg fasted, follow up): 0.20 (0.15) 10^9 L^–1 | Erythrocyte MCH (45 mg fasted, follow up): 28.3 (2.3) pg | Erythrocyte MCH concentration (45 mg fasted, follow up): 333 (10) g L^–1 | Erythrocyte MCV (45 mg fasted, follow up): 85.0 (5.8) fL | Erythrocytes (45 mg fasted, follow up): 5.08 (0.35) 10^12 L^–1 | Haematocrit (45 mg fasted, follow up): 0.43 (0.02) ratio | Haemoglobin (45 mg fasted, follow up): 143 (7) g L^–1 | Leukocytes (45 mg fasted, follow up): 5.88 (1.09) 10^9 L^–1 | Lymphocytes (45 mg fasted, follow up): 1.61 (0.45) 10^9 L^–1 | Monocytes (45 mg fasted, follow up): 0.45 (0.13) 10^9 L^–1 | Neutrophils (45 mg fasted, follow up): 3.45 (1.25) 10^9 L^–1 | Platelets (45 mg fasted, follow up): 245 (38) 10^9 L^–1 | Reticulocytes (45 mg fasted, follow up): 79.1 (19.3) 10^9 L^–1
